These are literature values, as cited in patent US20240173301A1, “2-IMINOBIOTIN FOR USE IN THE TREATMENT OF STROKE” (NEUROPHYXIA B.V., priority 2021, published 2024).

Where two headings read alike, the source gives them in different places. Where no end group is shown, it is not given here.

For series [1] the following is noted: healthy volunteers; preclinical safety; Phase I and II studies in neonates with asphyxia and adults after cardiac arrest.
The conditions of series [2]: adult human patients after cardiac arrest.
For series [3] the following is noted: in vivo.
For series [4] the following is noted: single dose.

`N=C1N[C@H]2[C@H](CS[C@H]2CCCCC(=O)O)N1` [2-IB, 2-iminobiotin]: in the series with neuronal culture, the “concentration range at which 2-IB is most active in vitro” value was “around 30 ng/ml”. Also, the safety entry in series [1] was “proven to be safe”. The “tolerability of eGFR adjusted dose” value in series [2] is recorded as “tolerated without clinical drug-related adverse events”. Moreover, the “effect on tissue damage after ischemia-reperfusion” value in series [3] is reported as “prevents (further) tissue damage”.

Take YGRKKRRQRRRKLSSIESDV [nerinetide]: the clinical outcome in series [4] (alteplase-treated stroke patients) was “did not show favorable outcomes”; in series [4] (stroke patients that did not receive alteplase), “significant improvement”.
